Among the test systems are M14 melanoma; CCRF-CEM leukemia; TK-10 renal; SK-MEL-5 melanoma; OVCAR-5 ovarian; MCF7 breast; NCI-H23 lung; HL-60(TB) leukemia; MDA-N.
Common to all, as to assay: DTP human tumour cell line panel, 48 h

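Test compounds were applied to cells in 96-well plates for 48 hours at 5 doses. GI50 marks 50% less growth. The concentration for full growth arrest is given as TGI.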 A value given as a limit tells only on which side of the number the result lay.

Usually GI50 stands for the concentration giving 50% growth inhibition. Broadly, the TGI is the concentration giving total growth inhibition. A low value points to more potent growth arrest. With `Oc1[nH]c2ccccc2c1/C=c1/cc2c(c(-c3ccc(F)cc3)n1)=Nc1ccccc1-2`, the GI50 was 0.315 µM in the assay on M14 melanoma; 0.648 µM with CCRF-CEM leukemia; 1.44 µM in the assay with TK-10 renal; 1.41 µM in the assay on SK-MEL-5 melanoma; 1.36 µM in the assay with OVCAR-5 ovarian; 0.817 µM in the assay with MCF7 breast. Moreover, the GI50 is 1.16 µM in the assay on NCI-H23 lung and 0.282 µM in the assay on HL-60(TB) leukemia. The TGI stood at 1.41 µM in the assay with M14 melanoma; 3.25 µM in the assay with CCRF-CEM leukemia; 3.71 µM with TK-10 renal; 3.06 µM in the assay on SK-MEL-5 melanoma; 4.39 µM with OVCAR-5 ovarian; 2.57 µM with MCF7 breast. The TGI worked out at 3.11 µM in the assay with NCI-H23 lung and 0.994 µM in the assay with HL-60(TB) leukemia.

Consider `CC(=O)N1CCn2c1nc1cc(Cl)ccc12`, for which the TGI in the assay on M14 melanoma, in the assay on MDA-N, in the assay with CCRF-CEM leukemia, in the assay with TK-10 renal, in the assay with SK-MEL-5 melanoma and in the assay with OVCAR-5 ovarian was more than 100 µM throughout. Moreover, the TGI with MCF7 breast and with HL-60(TB) leukemia was more than 100 µM throughout.

For `O=C(CCc1ccccc1)ON1C(=S)C(c2ccccc2)(c2ccccc2)N=C1Sc1ccccc1`, the TGI in the assay with M14 melanoma, in the assay on CCRF-CEM leukemia, with TK-10 renal, with SK-MEL-5 melanoma, in the assay on OVCAR-5 ovarian and in the assay on MCF7 breast was more than 100 µM throughout. Also, the TGI in the assay on NCI-H23 lung and in the assay with HL-60(TB) leukemia was more than 100 µM each time.

As to `S=C(Nc1ccc2cn[nH]c2c1)Nc1ccc2cn[nH]c2c1`, the TGI in the assay on M14 melanoma, with MDA-N, with TK-10 renal, with SK-MEL-5 melanoma, in the assay on OVCAR-5 ovarian and in the assay on MCF7 breast was more than 100 µM throughout. The same molecule showed a TGI with NCI-H23 lung of more than 100 µM.

Take `O=C(Nc1ccccc1)c1cc(S(=O)(=O)N2CCNNC2=O)c(S)cc1Cl`: the TGI in the assay on M14 melanoma, with MDA-N, in the assay on CCRF-CEM leukemia, in the assay with TK-10 renal, in the assay with SK-MEL-5 melanoma and in the assay with OVCAR-5 ovarian was more than 100 µM throughout. Besides, the TGI in the assay on MCF7 breast and in the assay on HL-60(TB) leukemia was more than 100 µM each time.

Take `CC1C(c2ccc(Cl)cc2)c2cc3c(cc2OC1N1CCOCC1)OCO3` (stereo not given): the TGI with M14 melanoma, in the assay on MDA-N, with CCRF-CEM leukemia, with TK-10 renal, in the assay on SK-MEL-5 melanoma and in the assay on OVCAR-5 ovarian was more than 100 µM each time. Further, the TGI in the assay on MCF7 breast and with NCI-H23 lung was more than 100 µM each time.

As to `CCCC(CCN)(CCN)[N+](=O)[O-]`, the TGI with M14 melanoma, in the assay on MDA-N, in the assay on CCRF-CEM leukemia, in the assay on TK-10 renal, in the assay with SK-MEL-5 melanoma and with OVCAR-5 ovarian was more than 100 µM each time. The TGI with NCI-H23 lung and in the assay on HL-60(TB) leukemia was more than 100 µM in each case.

In the case of `CCOC(=O)C1=COC(C)(CCc2ccccc2)CC1=O` (stereo not given), the TGI with M14 melanoma, with MDA-N, in the assay on TK-10 renal, in the assay with SK-MEL-5 melanoma, with OVCAR-5 ovarian and in the assay with MCF7 breast was more than 100 µM each time. The TGI in the assay on NCI-H23 lung is more than 100 µM.

As for `C(=C\N1CCCCC1)/c1nnnn1-c1ccccc1`, the TGI in the assay on M14 melanoma was 38.5 µM; in the assay with MDA-N it was more than 100 µM; with CCRF-CEM leukemia, 61.1 µM; with TK-10 renal it was more than 100 µM; with SK-MEL-5 melanoma it was 58.9 µM; in the assay on OVCAR-5 ovarian it was more than 100 µM. Besides, the TGI in the assay on NCI-H23 lung is more than 100 µM; in the assay with HL-60(TB) leukemia it was 37.7 µM.

As for `CCN(CC)c1ccc2cc(C(=O)Nc3ccccn3)c(=N)oc2c1`, the TGI with M14 melanoma, with MDA-N, with CCRF-CEM leukemia, with SK-MEL-5 melanoma, in the assay on OVCAR-5 ovarian and in the assay on NCI-H23 lung was more than 100 µM throughout. This molecule also yielded a TGI in the assay on HL-60(TB) leukemia of more than 100 µM.

`COc1ccc(C(OCC2OC(n3ccc(NC(=O)c4ccccc4)nc3=O)CC2OP2(=S)SCCS2)(c2ccccc2)c2ccc(OC)cc2)cc1` (stereo not given): the TGI was 66.2 µM with M14 melanoma; more than 10 µM with MDA-N; more than 100 µM with TK-10 renal; 43.9 µM in the assay with SK-MEL-5 melanoma; 94.6 µM with OVCAR-5 ovarian; more than 100 µM in the assay on MCF7 breast. In the assay on NCI-H23 lung, the total growth inhibition concentration (TGI) was more than 100 µM.

Regarding `CC(C)(C)OC(=O)NCCCCC(NC(=O)c1ccccc1)C(N)=O` (stereo not given), the TGI in the assay on M14 melanoma, in the assay on MDA-N, in the assay on CCRF-CEM leukemia, in the assay on TK-10 renal, in the assay with SK-MEL-5 melanoma and in the assay with OVCAR-5 ovarian was more than 100 µM each time. Further, the TGI with MCF7 breast and with NCI-H23 lung was more than 100 µM throughout.

As to `CCOC(=O)Oc1ccc2c(c1)c(=O)c1c(NCCN(CC)CC)ccc3nnn2c31`, the TGI in the assay with M14 melanoma worked out at 19.1 µM; in the assay with MDA-N, 15.6 µM; with CCRF-CEM leukemia, 1.54 µM; in the assay with TK-10 renal, 16.2 µM; in the assay on SK-MEL-5 melanoma, 16.1 µM; in the assay with OVCAR-5 ovarian it was 22.7 µM. Also, the TGI worked out at 12 µM with MCF7 breast and 18.1 µM in the assay on NCI-H23 lung.

For the molecule `COc1ccc2oc(=O)c(-c3csc(C)n3)cc2c1`, the TGI with M14 melanoma was more than 100 µM; in the assay with CCRF-CEM leukemia, more than 100 µM; in the assay on TK-10 renal, 64.7 µM; with SK-MEL-5 melanoma, more than 100 µM; with OVCAR-5 ovarian, more than 100 µM; in the assay on MCF7 breast it was more than 100 µM. In addition, the total growth inhibition concentration (TGI) in the assay with HL-60(TB) leukemia was more than 100 µM.

As to `COc1cc(C2c3cc4c(cc3OC(NCCO)C2C)OCO4)cc(OC)c1OC` (stereo not given), the TGI with M14 melanoma is more than 45 µM; with MDA-N, 0.5 µM; with TK-10 renal it was more than 96.3 µM; in the assay with SK-MEL-5 melanoma, 13.4 µM; with OVCAR-5 ovarian, more than 100 µM; in the assay on MCF7 breast, more than 100 µM. In the assay on NCI-H23 lung, this molecule showed a TGI of more than 100 µM.

Turning to `COC(OC)[C@@H]1OC[C@@H](O)[C@@H]1n1cnc2c(N)ncnc21`, the TGI in the assay on M14 melanoma, with MDA-N, in the assay with CCRF-CEM leukemia, with TK-10 renal, in the assay on SK-MEL-5 melanoma and in the assay on OVCAR-5 ovarian was more than 100 µM in each case. For the same molecule, the TGI in the assay with MCF7 breast and with NCI-H23 lung was more than 100 µM throughout.

Values taken from PubChem BioAssay (NCI).
